From patent US9320271B2, “Microbial composition” (Rohm and Haas Company, priority 2011, dated 2016)
“And” between values parts separate entries of the source, which are not always exact repeats. Equal values may be shown once.

Experiments:
[1] = system: Escherichia coli (E. coli—ATCC #10536); test: Automated assessment of efficacy in surfactant base (2.85% sodium cocoyl glycinate and 1.85% sodium lauroamphoacetate, pH 10.0), 15 seconds exposure; format: cell-based; details: for No. of replicates showing growth (out of 4) / Δ OD 450 nm = OD450 (time = 16 hours) − OD450 (time zero), Mean / Δ OD 590 nm OD590 (time = 16 hours) − OD590 (time zero), Mean: alone, model surfactant solution
[2] = system: Escherichia coli (E. coli—ATCC #10536); test: Synergy test: high resolution MBC microtiter plate assay, phosphate buffer containing 35% dipropylene glycol, 15 seconds contact; format: cell-based; details: E. coli 10536; for MBC of the component acting alone (QA / QB; Qa or Qb where the other component is 0): complete kill in 15 seconds

With Cc1ccc(C(C)C)c(O)c1O [3-isopropyl-6-methylbenzene-1,2-diol] the “No. of replicates showing growth (out of 4)” value ([1]; 0.175% w/v) was 4, the “Δ OD 450 nm = OD450 (time = 16 hours) − OD450 (time zero), Mean” value (from here on “Δ OD 450 nm = OD450”) ([1]; 0.175% w/v) was −0.51 and the “Δ OD 590 nm OD590 (time = 16 hours) − OD590 (time zero), Mean” value (“Δ OD 590 nm OD590” below) ([1]; 0.175% w/v) was 0.53. The “No. of replicates showing growth (out of 4)” value ([1]; 0.2% w/v) was 4, the “Δ OD 450 nm = OD450” value ([1]; 0.2% w/v) was −0.53 and the “Δ OD 590 nm OD590” value ([1]; 0.2% w/v) was 0.53. For the same compound, the “No. of replicates showing growth (out of 4)” value ([1]; […] w/v) was 4, the “Δ OD 450 nm = OD450” value ([1]; […] w/v) was −0.50 and the “Δ OD 590 nm OD590” value ([1]; […] w/v) was 0.56. For the same compound, the “MBC (minimum biocidal concentration)” value ([1]; in 2.85% sodium cocoyl glycinate + 1.85% sodium lauroamphoacetate solution at pH 10, E. coli) was greater than 0.2 % w/v, the “SI (Synergy Index)” value ([2]; at Qa and Qb, less than one = synergy) was 1.00 and the “MBC of the component acting alone (QA / QB; Qa or Qb where the other component is 0)” value [2] was 1.0 weight % and 0.8 weight %. The “MBC of the component acting alone (QA / QB; Qa or Qb where the other component is 0)” value ([2]; listed as 3-isopronyl-6-methylbenzene-1,2-diol) was 0.8 weight %.
